The record followed here is ChEMBL document CHEMBL1201862, “PubChem BioAssay data set” (2004).

Among the test systems are 786-0; CAKI-1; COLO 205; HCT-116; HOP-92; HT-29; KM-20L2; Malme-3M; NCI-H23; NCI-H522; OVCAR-3; RPMI-8226; SK-MEL-28; SNB-19; TK-10; BT-549; DU-145; Hs-578T; MDA-MB-435; T47D.
Common to all, as to test: DTP human tumour cell line panel, 48 h

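96-well plates; 48 h exposure; 5 concentrations. Endpoints by linear interpolation between flanking doses. Not reached: highest tested concentration assigned. GI50 is the concentration that inhibits growth by half.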 Calls of active or inactive are those of the source. Rule as the data show it: active = GI50 up to about 1.1 µM and inactive = higher. Bounds are passed on as bounds.

By GI50 is commonly meant the concentration that inhibits growth by half.

Take `CC1=CC(=O)N2C(OC[C@@H]2c2ccccc2)O1` (stereo not given in full): the GI50 with 786-0, in the experiment on CAKI-1, with COLO 205, with HCT-116, in the experiment on HOP-92 and with HT-29 was > 100 µM (inactive) throughout. Further, the GI50 with KM-20L2, with Malme-3M, in the experiment with NCI-H23, with NCI-H522, in the experiment on OVCAR-3 and in the experiment on RPMI-8226 was > 100 µM (inactive) each time. The GI50 in the experiment on SK-MEL-28, in the experiment with SNB-19 and in the experiment on TK-10 was > 100 µM (inactive) throughout.

Regarding `CC(C)C1CC[C@@H](C)C[C@@]1(O)CC(N)=O` (stereo not given in full), the GI50 in the experiment on 786-0 was > 100 µM (inactive); with CAKI-1, > 100 µM (inactive); in the experiment with COLO 205, > 100 µM (inactive); in the experiment on HCT-116, > 100 µM (inactive); in the experiment with HOP-92, < 0.01 µM (active); in the experiment with HT-29, > 100 µM (inactive). In addition, the GI50 in the experiment on KM-20L2, in the experiment on Malme-3M, with NCI-H23, in the experiment with NCI-H522, in the experiment on OVCAR-3 and in the experiment with RPMI-8226 was > 100 µM (inactive) each time. For the same compound, the GI50 in the experiment with SK-MEL-28, in the experiment with SNB-19 and in the experiment on TK-10 was > 100 µM (inactive) each time.

Take `Cc1ccc(NC(=O)C(=O)CC(=O)c2ccccc2)cc1C`: the GI50 in the experiment with 786-0 is > 100 µM (inactive); with CAKI-1, 56.8 µM (inactive); in the experiment on COLO 205 it was > 100 µM (inactive); with HCT-116, 60.3 µM (inactive); with HOP-92, > 100 µM (inactive); in the experiment on HT-29 it was > 100 µM (inactive). Moreover, the GI50 was > 100 µM (inactive) in the experiment with KM-20L2; > 100 µM (inactive) in the experiment with Malme-3M; > 100 µM (inactive) in the experiment with NCI-H23; 98.9 µM (inactive) in the experiment on NCI-H522; 33.6 µM (inactive) in the experiment on OVCAR-3; > 100 µM (inactive) in the experiment with RPMI-8226. The GI50 in the experiment on SK-MEL-28, in the experiment on SNB-19 and in the experiment on TK-10 was > 100 µM (inactive) each time.

Take `COc1cc(C2C(Cl)C(=O)N2NC(=O)c2ccc(NC(C)=O)cc2)ccc1O` (stereo not given): the GI50 in the experiment on 786-0, with CAKI-1, with COLO 205, in the experiment with HCT-116, in the experiment with HOP-92 and in the experiment with HT-29 was > 100 µM (inactive) throughout. For the same compound, the GI50 with KM-20L2, in the experiment with Malme-3M, in the experiment with NCI-H23, in the experiment with NCI-H522, in the experiment on OVCAR-3 and with RPMI-8226 was > 100 µM (inactive) each time. The GI50 in the experiment with SK-MEL-28, in the experiment with SNB-19 and in the experiment with TK-10 was > 100 µM (inactive) each time.

Turning to `CC(C)(C)C(=C[S+]([O-])/N=C/c1ccccc1)C(C)(C)C` (stereo not given), the GI50 is > 100 µM (inactive) in the experiment on 786-0; 30 µM (inactive) in the experiment on CAKI-1; 41.1 µM (inactive) in the experiment with COLO 205; 30.4 µM (inactive) in the experiment on HCT-116; 19.7 µM (inactive) in the experiment on HOP-92; 38.4 µM (inactive) with HT-29. The GI50 in the experiment on KM-20L2 is 52.8 µM (inactive); in the experiment on Malme-3M, 22.3 µM (inactive); in the experiment with NCI-H23, 48 µM (inactive); with NCI-H522, 23 µM (inactive); with OVCAR-3 it was 34.1 µM (inactive); in the experiment with RPMI-8226 it was 20.8 µM (inactive). In addition, the GI50 in the experiment on SK-MEL-28 was > 100 µM (inactive); with SNB-19, 44.7 µM (inactive); in the experiment on TK-10, > 100 µM (inactive).

As for `COc1ccc(-c2cc(=O)c3cc(O)ccc3o2)c(OC)c1OC`, the GI50 in the experiment on 786-0 was 29 µM (inactive); in the experiment with CAKI-1 it was 34.5 µM (inactive); in the experiment with COLO 205, 75.2 µM (inactive); in the experiment on HCT-116 it was 26.5 µM (inactive); in the experiment on HOP-92 it was 32.4 µM (inactive); in the experiment with HT-29, 44.2 µM (inactive). Also, the GI50 in the experiment with KM-20L2 was 19.3 µM (inactive); with Malme-3M it was 66.5 µM (inactive); in the experiment with NCI-H23, 36.8 µM (inactive); with NCI-H522 it was 18.2 µM (inactive); in the experiment on OVCAR-3, 18.4 µM (inactive); with RPMI-8226 it was 12.9 µM (inactive). The values for the GI50 in the experiment with SK-MEL-28, in the experiment on SNB-19 and with TK-10 were 53.7 µM (inactive), 47.4 µM (inactive) and 39.4 µM (inactive), respectively.

Regarding `c1cc2ccc1C1NCCCN1CCN1CCCNC1c1ccc(cc1)C1NCCCN1CCN1CCCNC21` (stereo not given), the GI50 in the experiment with 786-0 was > 100 µM (inactive); with CAKI-1 it was > 100 µM (inactive); with COLO 205 it was 54.3 µM (inactive); in the experiment with HCT-116, 42.6 µM (inactive); in the experiment with HOP-92 it was > 100 µM (inactive); in the experiment with HT-29 it was > 100 µM (inactive). Also, the GI50 was > 100 µM (inactive) in the experiment on KM-20L2; 44.4 µM (inactive) with Malme-3M; > 100 µM (inactive) with NCI-H23; 23.1 µM (inactive) with NCI-H522; 50.7 µM (inactive) in the experiment with OVCAR-3; 70.6 µM (inactive) in the experiment with RPMI-8226. For the same compound, the GI50 with SK-MEL-28, in the experiment with SNB-19 and in the experiment on TK-10 was > 100 µM (inactive) each time.

For the compound `Oc1ncnc2c1CCCN2`, the GI50 with 786-0, in the experiment with CAKI-1, in the experiment on COLO 205, in the experiment with HCT-116, with HOP-92 and in the experiment with HT-29 was > 100 µM (inactive) each time. The GI50 with KM-20L2, in the experiment with Malme-3M, in the experiment on NCI-H23, with NCI-H522, in the experiment with OVCAR-3 and with RPMI-8226 was > 100 µM (inactive) throughout. Moreover, the GI50 with SK-MEL-28, in the experiment with SNB-19 and in the experiment with TK-10 was > 100 µM (inactive) throughout.

In the case of `O=S(=O)(CC1=NC2C=CC=CC2N=C1)NCc1ccccc1` (stereo not given), the GI50 in the experiment with 786-0 is > 100 µM (inactive); in the experiment with CAKI-1, > 100 µM (inactive); in the experiment with COLO 205 it was > 100 µM (inactive); in the experiment on HCT-116, > 100 µM (inactive); in the experiment with HOP-92, 75.3 µM (inactive); in the experiment with HT-29, > 100 µM (inactive). Moreover, the GI50 is > 100 µM (inactive) with KM-20L2; > 100 µM (inactive) in the experiment on Malme-3M; > 100 µM (inactive) with NCI-H23; 76.2 µM (inactive) in the experiment on NCI-H522; 83.2 µM (inactive) in the experiment with OVCAR-3; > 100 µM (inactive) in the experiment on RPMI-8226. The GI50 in the experiment on SK-MEL-28, with SNB-19 and with TK-10 was > 100 µM (inactive) in each case.

Consider `COC1=CC(=O)c2c(O)c3c(c(O)c2C1=O)C[C@](C)(O)C[C@@H]3O`, for which the GI50 with 786-0 was 7.76 µM (inactive); in the experiment with BT-549, 7.76 µM (inactive); in the experiment with CAKI-1, 17.4 µM (inactive); in the experiment with COLO 205, 1.77 µM (inactive); in the experiment on DU-145, 4.11 µM (inactive); in the experiment with HCT-116 it was 2.61 µM (inactive). Moreover, the GI50 with HOP-92 was 9.48 µM (inactive); with HT-29, 2.72 µM (inactive); with Hs-578T, 18.2 µM (inactive); with KM-20L2, > 100 µM (inactive); with MDA-MB-435, 1.88 µM (inactive); in the experiment on Malme-3M, 1.03 µM (active). Moreover, the GI50 with NCI-H23 is 2.43 µM (inactive); in the experiment with NCI-H522, 4.52 µM (inactive); in the experiment on OVCAR-3 it was 0.861 µM (active); in the experiment on RPMI-8226, 8.11 µM (inactive); with SK-MEL-28, 7.05 µM (inactive); in the experiment with SNB-19, 4.92 µM (inactive). For the same compound, the GI50 in the experiment on T47D was 6.98 µM (inactive); in the experiment with TK-10 it was 23.2 µM (inactive).

Regarding `CC(C)N1CN(C(C(=O)N[C@@H]2C(=O)N3C2SC(C)(C)C3C(=O)O)c2ccc(O)cc2)CSC1=S` (stereo not given in full), the GI50 in the experiment on 786-0 is > 100 µM (inactive); in the experiment with CAKI-1, > 100 µM (inactive); in the experiment with COLO 205, 33.8 µM (inactive); in the experiment with HCT-116, > 100 µM (inactive); in the experiment on HOP-92, > 100 µM (inactive); in the experiment on HT-29 it was > 100 µM (inactive). Besides, the GI50 is > 100 µM (inactive) in the experiment on KM-20L2; > 100 µM (inactive) with Malme-3M; > 100 µM (inactive) in the experiment on NCI-H23; 41 µM (inactive) in the experiment with NCI-H522; 41.1 µM (inactive) in the experiment on OVCAR-3; 94.2 µM (inactive) with RPMI-8226. Further, the GI50 in the experiment with SK-MEL-28, in the experiment on SNB-19 and in the experiment on TK-10 was > 100 µM (inactive) throughout.
